# Laboratory results as given in US20070213291A1, “Therapeutically useful synthetic oligonucleotides” (priority 1999, published 2007).
# Legend:
# [1] = tested on: SK-OV-3 human ovarian cancer cells; experiment: Inhibition of SK-OV-3 cell proliferation (MTT); assay type: cell-based; details: 100 μg/ml, 48 h, 5×10^5 cells/ml
# Protocol: (§1) Cells were seeded in 6 (1 ml/well), 24 (0.5 ml/well) or 96 (0.1 ml/well) well flat-bottom microplates and were maintained at 37° C. in a 5% CO2 atmosphere. Unless stated otherwise, 2.5×10^5 cells/ml were incubated with 0 μg/ml (control) and 100 μg/ml (treated) of 2 to 45 base sequences containing A, C, G and T for 48 h.
# (§2) Cell proliferation was measured using dimethylthiazol-diphenyl-tetrazolium (MTT) reduction (Mosman et al. J. Immunol. Methods 65:55, 1983). MTT was measured at a wavelength of 570 nm using a multiplate spectrophotometer reader (ELX800, Bio-TEK Instruments Inc., Winooski, Vt.).
# SK-OV-3 ovarian cancer cells are a p53 mutated, p21/waf-1/Cip deleted, p15^ink4B deleted, p16^Ink4 deleted, metastatichuman solid tumor model. SK-OV-3 cells (5×10^5 cells/ml) were incubated with 2, 6 and 18 base GT sequences (Table 12).
# [2] = tested on: L-1210 murine leukemia cells; experiment: Inhibition of L-1210 cell proliferation; assay type: cell-based
# Protocol: as §1, §2
# caspase 3 = experiment: Caspase 3 activation, colorimetric (p-nitroanilide peptide cleavage); assay type: cell-based, human; details: Jurkat, 72 h, 100 μg/ml
# Protocol: To determine caspase activation, control and treated cells are washed, fixed, permeabilized and incubated with an FITC-conjugated antibody that recognizes the active form of the caspase (Pharmingen, San Diego, Calif.) using the conditions recommended by the manufacturer. Fluorescence associated with active caspase 3 is analyzed by flow cytometry on a FACSCALIBUR using the program CellQUEST (Becton Dickinson). Alternatively, caspase activation is determined colorimetrically using an assay based on the cleavage of a caspase-specific peptide conjugated to the color reporter molecule p-nitroanilide, which can be quantitated spectrophotometrically at a wavelength of 405 nm.
# Jurkat T cell leukemia cells were incubated for 72 h with 33 base GT SEQ ID NO:66; 11 base GT SEQ ID NO:81 (bases 1-11 of GT SEQ ID NO:66), 11 base GT SEQ ID NO:82 (bases 12-22 of GT SEQ ID NO:66), 11 base GT SEQ ID NO:83 (bases 23-33 of GT SEQ ID NO:66) and 15 base ACG SEQ ID NO:67. Active caspase 3 (17-22 kDa) was determined using FITC conjugated antibody (Clone: C92-605) as in Example 28.
# Caspase 3 activation also was determined colorimetrically as in Example 28.
# Jurkat T cell leukemia cells were incubated for 72 h with 6 base GT SEQ ID NO:25. Caspase 3 activation was determined colorimetrically as in Example 28.
# PARP = PARP cleavage by Western blot; assay type: cell-based, human; details: Jurkat, 72 h, 100 μg/ml (FIG. 3B)
# Protocol: Jurkat T cell leukemia cells were incubated for 72 h with 6 base GT SEQ ID NO:25. The cells were washed 3× with PBS, lysed with 10 mM HEPES, pH 7.5 containing 5 mM MgCl2, 1 mM dithiothreitol, 1.5 nM aprotinin, 10 mM leupeptin and 2.5 μm Na orthovanadate, and the protein content of the lysate was determined (Bradford J. Anal. Biochem. 72:248, 1976).
# Activated caspase 7 and PARP cleavage were detected by Western blot analysis. Lysate was mixed with Laemmli buffer (Laemmli U. Nature […], 1970), shaken, and heated at 100° C. for 4 min. […] The separated proteins were electroblotted onto a PVDF membrane. Equal protein loading was monitored by Ponceau red staining of the membrane.
# The membrane was blocked overnight at 4° C. with a buffer containing 1% Tris-buffered saline (2 mM Tris-HCl, 13.7 mM NaCl, pH 7.6, and 0.1% polyethylenesorbitan monolaurate (TWEEN 20) (TBST) +5% non-fat dry milk. The membrane was washed and was incubated for 1 h at RT with a mouse monoclonal IgG anti-caspase 7 antibody (Pharmingen) (diluted 1:1000 in TBST+1% BSA) or with a mouse monoclonal IgG anti-PARP antibody (diluted 1:1000 in TBST+1% BSA) (Pharmingen). IgG bound to caspase 7 or to PARP was detected with sheep anti-mouse IgG conjugated to horseradish peroxidase (diluted 1:1000 in TBST+5% non-fat dry milk) (Pharmingen). […]
# [3] = tested on: MCF-7 human breast cancer cells; experiment: MCF-7 human breast tumor xenografts in female nude BALB/c mice; assay type: in vivo; details: after 4 weeks of treatment, compared with other groups (group 1 saline)
# Protocol: MCF-7 human breast cancer cells are implanted subcutaneously as xenografts, in female nude BALB/c mice. The mice are divided into 6 groups of 10 mice. […] After 4 weeks of treatment, the mice are sacrificed and tumor mass is determined.
sequence,measurement,setting,value
GGGTGG [SEQ ID NO:25],% INHIBITION of SK-OV-3 human ovarian cancer cell proliferation,[1],12%
same,% inhibition of L-1210 murine cancer cell proliferation,[2],8%
same,caspase 3 activity greater than in control cells,caspase 3,323%
same,PARP cleavage,PARP,active PARP to its inactive 85 kDa degradation product
same,tumor mass,[3],less tumor mass than group 1 mice
